TGI data for 13 molecules are collected here from PubChem BioAssay (NCI).

Among the test systems are 786-0 renal; BT-549 breast; EKVX NSCLC; HCT-15 colon; HL-60(TB) leukemia; M14 melanoma; MCF7 breast; NCI-H226 lung; NCI-H460 lung; NCI/ADR-RES ovarian; RXF 393 renal; SF-539 CNS; SK-OV-3 ovarian; SNB-19 CNS; SNB-75 CNS; UACC-257 melanoma; UACC-62 melanoma; NCI-H522 lung.
What all share (assay): NCI-60 cell line screen, 48 h

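The compound was tested at five concentrations on cells cultured in 96-well plates, with a 48-hour exposure period. TGI: total growth inhibition.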

In the case of `COc1cc(C2C3=C(COC3=O)Oc3cc4c(cc32)OCO4)ccc1OC(C)=O` (configuration not stated), the TGI with 786-0 renal was above 100 µM; in the assay with BT-549 breast, 12.6 µM; in the assay with EKVX NSCLC it was above 100 µM; with HCT-15 colon it was above 100 µM; in the assay with HL-60(TB) leukemia, 0.907 µM; with M14 melanoma it was above 100 µM. For the same molecule, the TGI is above 100 µM in the assay on MCF7 breast; above 100 µM in the assay with NCI-H226 lung; above 100 µM in the assay with NCI-H460 lung; above 100 µM with NCI/ADR-RES ovarian; above 100 µM in the assay with RXF 393 renal; 0.749 µM in the assay on SF-539 CNS. Further, the TGI is 0.909 µM with SK-OV-3 ovarian; above 100 µM in the assay with SNB-19 CNS; 0.585 µM with SNB-75 CNS; above 100 µM in the assay with UACC-257 melanoma; above 100 µM in the assay on UACC-62 melanoma.
As to `CCSC1=N/C(=C\c2ccco2)C(Cl)=N1`, the TGI with 786-0 renal, in the assay with BT-549 breast, in the assay with EKVX NSCLC, in the assay with HCT-15 colon, with HL-60(TB) leukemia and with M14 melanoma was above 100 µM throughout. Moreover, the TGI in the assay on MCF7 breast, with NCI-H226 lung, in the assay with NCI-H460 lung, in the assay on NCI/ADR-RES ovarian, in the assay with SF-539 CNS and in the assay with SK-OV-3 ovarian was above 100 µM throughout. The TGI in the assay on SNB-19 CNS, in the assay on SNB-75 CNS, with UACC-257 melanoma and with UACC-62 melanoma was above 100 µM throughout.
As for `Cc1ccc(S(=O)(=O)NC2C(=O)c3ccccc3C(=O)C2n2cnc3ccccc32)cc1` (configuration not stated), the TGI with 786-0 renal is above 100 µM; in the assay with BT-549 breast, above 100 µM; in the assay with EKVX NSCLC, above 100 µM; with HCT-15 colon it was above 100 µM; with HL-60(TB) leukemia, 40.8 µM; with M14 melanoma, above 100 µM. Further, the TGI in the assay on MCF7 breast is above 100 µM; in the assay on NCI-H226 lung it was above 100 µM; in the assay on NCI-H460 lung, 84.3 µM; in the assay with NCI/ADR-RES ovarian, 73.6 µM; in the assay with RXF 393 renal, 61.8 µM; in the assay on SF-539 CNS, 62.6 µM. In addition, the TGI in the assay with SK-OV-3 ovarian was above 100 µM; in the assay on SNB-19 CNS, 89.7 µM; in the assay with SNB-75 CNS it was above 100 µM; with UACC-257 melanoma, above 100 µM; in the assay on UACC-62 melanoma, 74.4 µM.
Consider `CCOP(=O)(OCC)c1ccc(=O)[nH]c1-c1cccs1`, for which the TGI in the assay with 786-0 renal, in the assay on BT-549 breast, in the assay with EKVX NSCLC, in the assay on HCT-15 colon, in the assay on M14 melanoma and in the assay with MCF7 breast was above 100 µM each time. Further, the TGI in the assay with NCI-H226 lung, in the assay with NCI-H460 lung, in the assay with NCI-H522 lung, in the assay on NCI/ADR-RES ovarian, in the assay on RXF 393 renal and in the assay with SF-539 CNS was above 100 µM in each case. Also, the TGI in the assay on SK-OV-3 ovarian, in the assay on SNB-19 CNS, in the assay on SNB-75 CNS, in the assay on UACC-257 melanoma and in the assay with UACC-62 melanoma was above 100 µM throughout.
On to `c1ccc(Nc2nnc(Cn3ccc4ccccc43)s2)cc1`, for which the TGI in the assay with 786-0 renal, in the assay on BT-549 breast, with EKVX NSCLC, in the assay on HCT-15 colon, in the assay with M14 melanoma and with MCF7 breast was above 100 µM throughout. The TGI in the assay on NCI-H226 lung, in the assay with NCI-H460 lung, in the assay with NCI-H522 lung, in the assay on NCI/ADR-RES ovarian, in the assay with RXF 393 renal and in the assay on SF-539 CNS was above 100 µM each time. Also, the TGI was above 100 µM in the assay on SK-OV-3 ovarian; above 100 µM with SNB-19 CNS; 82.8 µM in the assay with SNB-75 CNS; above 100 µM with UACC-257 melanoma; above 100 µM with UACC-62 melanoma.
As to `CC(=O)N(CCc1ccccc1)C(C#N)c1ccc(OCCCCCCCCCCOc2ccc(C(C#N)N(CCc3ccccc3)C(C)=O)cc2)cc1` (configuration not stated), the TGI with 786-0 renal was 50 µM; in the assay with BT-549 breast it was 98.6 µM; in the assay with EKVX NSCLC, above 100 µM; in the assay on HCT-15 colon it was above 100 µM; in the assay with HL-60(TB) leukemia, above 100 µM; in the assay with M14 melanoma it was above 100 µM. Also, the TGI in the assay with MCF7 breast is above 100 µM; with NCI-H226 lung, 66.9 µM; in the assay with NCI-H460 lung, above 100 µM; with NCI/ADR-RES ovarian it was above 100 µM; with RXF 393 renal it was 63.2 µM; in the assay on SF-539 CNS, above 100 µM. Further, the TGI is above 100 µM in the assay with SK-OV-3 ovarian; 88.1 µM with SNB-19 CNS; 38.3 µM in the assay on SNB-75 CNS; above 100 µM in the assay with UACC-257 melanoma; above 100 µM in the assay with UACC-62 melanoma.
In the case of `N#Cc1c(Cl)c2ccccc2n2c1nc1ccccc12`, the TGI was 51 µM with 786-0 renal; above 100 µM in the assay on BT-549 breast; 70 µM with EKVX NSCLC; 33.1 µM in the assay with HCT-15 colon; 31 µM in the assay on HL-60(TB) leukemia; 69.8 µM with M14 melanoma. The TGI in the assay with MCF7 breast is above 100 µM; with NCI-H226 lung, 59 µM; in the assay with NCI-H460 lung, above 100 µM; in the assay with NCI/ADR-RES ovarian it was 65.6 µM; in the assay on RXF 393 renal, 49.3 µM; in the assay on SF-539 CNS it was 42.8 µM. The TGI in the assay on SK-OV-3 ovarian, in the assay with SNB-19 CNS, with SNB-75 CNS, in the assay with UACC-257 melanoma and with UACC-62 melanoma was above 100 µM in each case.
Turning to `COc1ccc(C2=C(N)c3c(OC)cccc3C2=O)cc1`, the TGI in the assay with 786-0 renal, in the assay on BT-549 breast, in the assay with EKVX NSCLC, with HCT-15 colon, in the assay with HL-60(TB) leukemia and in the assay with M14 melanoma was above 100 µM each time. Further, the TGI in the assay with MCF7 breast is above 100 µM; with NCI-H226 lung it was above 100 µM; in the assay with NCI-H460 lung it was above 100 µM; in the assay on NCI/ADR-RES ovarian, above 100 µM; with RXF 393 renal, 31.5 µM; in the assay with SF-539 CNS, 41.3 µM. In addition, the TGI with SK-OV-3 ovarian, in the assay on SNB-19 CNS, in the assay on SNB-75 CNS and in the assay with UACC-62 melanoma was above 100 µM in each case.
Take `Cc1cc(NCCCCCCCCCC[n+]2c(C)cc(N)c3ccccc32)c2ccccc2n1`: the TGI in the assay with 786-0 renal is 15.1 µM; with BT-549 breast, above 100 µM; with EKVX NSCLC it was above 100 µM; with HCT-15 colon, 18.4 µM; in the assay with M14 melanoma, 12 µM; in the assay on MCF7 breast, above 100 µM. Moreover, the TGI in the assay with NCI-H226 lung was above 100 µM; in the assay on NCI-H522 lung, above 100 µM; in the assay on NCI/ADR-RES ovarian it was 74.8 µM; with RXF 393 renal, above 100 µM; in the assay on SF-539 CNS it was above 100 µM; in the assay with SK-OV-3 ovarian it was 12.9 µM. The TGI in the assay with SNB-75 CNS was 7.71 µM; in the assay on UACC-62 melanoma, 4.17 µM.
`CCOC(=O)C1C(c2ccc(OC)cc2)c2c([nH][nH]c2=O)CC1(O)OCC` (configuration not stated): the TGI with 786-0 renal, in the assay with BT-549 breast, with EKVX NSCLC, in the assay on HCT-15 colon, in the assay on HL-60(TB) leukemia and in the assay on M14 melanoma was above 100 µM throughout. The TGI in the assay on MCF7 breast, in the assay with NCI-H460 lung, in the assay with NCI-H522 lung, in the assay on NCI/ADR-RES ovarian, in the assay with SF-539 CNS and in the assay on SNB-19 CNS was above 100 µM in each case. Besides, the TGI in the assay with SNB-75 CNS, with UACC-257 melanoma and in the assay with UACC-62 melanoma was above 100 µM each time.
Consider `N#Cc1c(Cl)/c(=C/O)c(=O)n2c1nc1ccccc12`, for which the TGI is above 100 µM in the assay on 786-0 renal; above 100 µM in the assay on BT-549 breast; above 100 µM in the assay with EKVX NSCLC; above 100 µM with HCT-15 colon; 89.6 µM with HL-60(TB) leukemia; above 100 µM in the assay with M14 melanoma. The TGI in the assay with MCF7 breast was above 100 µM; in the assay on NCI-H226 lung it was 52 µM; in the assay on NCI-H460 lung, above 100 µM; with NCI-H522 lung it was above 100 µM; in the assay with NCI/ADR-RES ovarian, above 100 µM; with SF-539 CNS, above 100 µM. In addition, the TGI in the assay on SK-OV-3 ovarian, with SNB-19 CNS, in the assay with SNB-75 CNS, with UACC-257 melanoma and in the assay on UACC-62 melanoma was above 100 µM in each case.
`O=c1oc2ccccc2nc1/C=C(\O)c1ccc([N+](=O)[O-])cc1`: the TGI in the assay on 786-0 renal, with BT-549 breast, with EKVX NSCLC, in the assay with HCT-15 colon, with M14 melanoma and with MCF7 breast was above 100 µM throughout. Further, the TGI in the assay with NCI-H226 lung, with NCI-H460 lung, in the assay on NCI-H522 lung, with NCI/ADR-RES ovarian, with RXF 393 renal and with SF-539 CNS was above 100 µM each time. Besides, the TGI in the assay with SK-OV-3 ovarian, with SNB-19 CNS, in the assay on SNB-75 CNS, with UACC-257 melanoma and in the assay on UACC-62 melanoma was above 100 µM throughout.
Consider `COc1ccc2cc(/C=N\NC(=O)Nc3cccc4ccccc34)ccc2c1`, for which the TGI in the assay with 786-0 renal was 25.5 µM; with BT-549 breast it was above 100 µM; in the assay with EKVX NSCLC, above 100 µM; in the assay on HCT-15 colon, above 100 µM; in the assay with M14 melanoma, above 100 µM; in the assay with MCF7 breast, above 100 µM. Further, the TGI with NCI-H226 lung is above 100 µM; in the assay on NCI-H460 lung, 86.4 µM; in the assay on NCI-H522 lung, above 100 µM; in the assay with NCI/ADR-RES ovarian, above 100 µM; in the assay with RXF 393 renal it was above 100 µM; with SF-539 CNS, above 100 µM. The results for the TGI in the assay on SNB-19 CNS, with SNB-75 CNS and in the assay with UACC-257 melanoma were 53.5 µM, 47.2 µM and above 100 µM, respectively.
